Two compounds from USRE42890E1, “Furazanobenzimidazoles” (Basilea Pharmaceutica AG, priority 2003, dated 2011) can be followed below.

The structures appear in SMILES notation.

In one experiment the test system is adherent cells or suspension cells. Description: Hoechst 33342 nuclear staining (fraction of apoptotic nuclei). The format is cell-based. Details: key: 0 relating to no activity; 1 relating to weak activity comprising less than 70% of the cells; score 2 relating to strong activity comprising more than 70% of the cells. The settings on record: H460, conc 0.01 μm.
In the case of `Cc1ccc(OCn2c(-c3nonc3NCCC#N)nc3ccccc32)cc1C` [Example 10, 4-[1-(3,4-Dimethylphenoxymethyl)-1H-benzimidazol-2-yl]-furazan-3-yl-N-(2-cyanoethyl)-amine], the “Hoechst 33342 nuclear staining score” value is recorded as 0.

As to `O=C(Cn1c(-c2nonc2NCCCO)nc2ccccc21)c1ccc(Cl)cc1` [Example 11, 4-[1-(4-Chlorophenacyl)-1H-benzimidazol-2-yl]-furazan-3-yl-N-(3-hydroxypropyl)-amine], the “Hoechst 33342 nuclear staining score” value came out at 0.

The same experiment, now with this note: H460, conc 0.1 μm.
For `Cc1ccc(OCn2c(-c3nonc3NCCC#N)nc3ccccc32)cc1C` [Example 10, 4-[1-(3,4-Dimethylphenoxymethyl)-1H-benzimidazol-2-yl]-furazan-3-yl-N-(2-cyanoethyl)-amine], the “Hoechst 33342 nuclear staining score” value is given as 1 (1 relating to weak activity comprising less than 70% of the cells).

Regarding `O=C(Cn1c(-c2nonc2NCCCO)nc2ccccc21)c1ccc(Cl)cc1` [Example 11, 4-[1-(4-Chlorophenacyl)-1H-benzimidazol-2-yl]-furazan-3-yl-N-(3-hydroxypropyl)-amine], the “Hoechst 33342 nuclear staining score” value came out at 0.

Still in this experiment, the particulars now being: H460, conc 1 μm.
In the case of `Cc1ccc(OCn2c(-c3nonc3NCCC#N)nc3ccccc32)cc1C` [Example 10, 4-[1-(3,4-Dimethylphenoxymethyl)-1H-benzimidazol-2-yl]-furazan-3-yl-N-(2-cyanoethyl)-amine], the “Hoechst 33342 nuclear staining score” value is recorded as 2 (score 2 relating to strong activity comprising more than 70% of the cells).

Take `O=C(Cn1c(-c2nonc2NCCCO)nc2ccccc21)c1ccc(Cl)cc1` [Example 11, 4-[1-(4-Chlorophenacyl)-1H-benzimidazol-2-yl]-furazan-3-yl-N-(3-hydroxypropyl)-amine]: the “Hoechst 33342 nuclear staining score” value is reported as 2 (score 2 relating to strong activity comprising more than 70% of the cells).

Staying with this experiment, now noted: HeLa, conc 0.01 μm.
Consider `Cc1ccc(OCn2c(-c3nonc3NCCC#N)nc3ccccc32)cc1C` [Example 10, 4-[1-(3,4-Dimethylphenoxymethyl)-1H-benzimidazol-2-yl]-furazan-3-yl-N-(2-cyanoethyl)-amine], for which the “Hoechst 33342 nuclear staining score” value came out at 0.

`O=C(Cn1c(-c2nonc2NCCCO)nc2ccccc21)c1ccc(Cl)cc1` [Example 11, 4-[1-(4-Chlorophenacyl)-1H-benzimidazol-2-yl]-furazan-3-yl-N-(3-hydroxypropyl)-amine]: the “Hoechst 33342 nuclear staining score” value is recorded as 0.

The same experiment, now with this note: HeLa, conc 0.1 μm.
As to `Cc1ccc(OCn2c(-c3nonc3NCCC#N)nc3ccccc32)cc1C` [Example 10, 4-[1-(3,4-Dimethylphenoxymethyl)-1H-benzimidazol-2-yl]-furazan-3-yl-N-(2-cyanoethyl)-amine], the “Hoechst 33342 nuclear staining score” value is on record as 0.

In the case of `O=C(Cn1c(-c2nonc2NCCCO)nc2ccccc21)c1ccc(Cl)cc1` [Example 11, 4-[1-(4-Chlorophenacyl)-1H-benzimidazol-2-yl]-furazan-3-yl-N-(3-hydroxypropyl)-amine], the “Hoechst 33342 nuclear staining score” value is on record as 1 (1 relating to weak activity comprising less than 70% of the cells).

Still in this experiment, the particulars now being: HeLa, conc 1 μm.
In the case of `Cc1ccc(OCn2c(-c3nonc3NCCC#N)nc3ccccc32)cc1C` [Example 10, 4-[1-(3,4-Dimethylphenoxymethyl)-1H-benzimidazol-2-yl]-furazan-3-yl-N-(2-cyanoethyl)-amine], the “Hoechst 33342 nuclear staining score” value is given as 2 (score 2 relating to strong activity comprising more than 70% of the cells).

As for `O=C(Cn1c(-c2nonc2NCCCO)nc2ccccc21)c1ccc(Cl)cc1` [Example 11, 4-[1-(4-Chlorophenacyl)-1H-benzimidazol-2-yl]-furazan-3-yl-N-(3-hydroxypropyl)-amine], the “Hoechst 33342 nuclear staining score” value is 2 (score 2 relating to strong activity comprising more than 70% of the cells).

Staying with this experiment, now noted: Jily, conc 0.01 μm.
Turning to `Cc1ccc(OCn2c(-c3nonc3NCCC#N)nc3ccccc32)cc1C` [Example 10, 4-[1-(3,4-Dimethylphenoxymethyl)-1H-benzimidazol-2-yl]-furazan-3-yl-N-(2-cyanoethyl)-amine], the “Hoechst 33342 nuclear staining score” value stood at 0.

Consider `O=C(Cn1c(-c2nonc2NCCCO)nc2ccccc21)c1ccc(Cl)cc1` [Example 11, 4-[1-(4-Chlorophenacyl)-1H-benzimidazol-2-yl]-furazan-3-yl-N-(3-hydroxypropyl)-amine], for which the “Hoechst 33342 nuclear staining score” value is listed as 0.

The experiment is the same for the next values; noted with them: Jily, conc 0.1 μm.
For the compound `Cc1ccc(OCn2c(-c3nonc3NCCC#N)nc3ccccc32)cc1C` [Example 10, 4-[1-(3,4-Dimethylphenoxymethyl)-1H-benzimidazol-2-yl]-furazan-3-yl-N-(2-cyanoethyl)-amine], the “Hoechst 33342 nuclear staining score” value is 1 (1 relating to weak activity comprising less than 70% of the cells).

As for `O=C(Cn1c(-c2nonc2NCCCO)nc2ccccc21)c1ccc(Cl)cc1` [Example 11, 4-[1-(4-Chlorophenacyl)-1H-benzimidazol-2-yl]-furazan-3-yl-N-(3-hydroxypropyl)-amine], the “Hoechst 33342 nuclear staining score” value was 2 (score 2 relating to strong activity comprising more than 70% of the cells).

Staying with this experiment, now noted: Jily, conc 1 μm.
Regarding `Cc1ccc(OCn2c(-c3nonc3NCCC#N)nc3ccccc32)cc1C` [Example 10, 4-[1-(3,4-Dimethylphenoxymethyl)-1H-benzimidazol-2-yl]-furazan-3-yl-N-(2-cyanoethyl)-amine], the “Hoechst 33342 nuclear staining score” value is given as 2 (score 2 relating to strong activity comprising more than 70% of the cells).

Take `O=C(Cn1c(-c2nonc2NCCCO)nc2ccccc21)c1ccc(Cl)cc1` [Example 11, 4-[1-(4-Chlorophenacyl)-1H-benzimidazol-2-yl]-furazan-3-yl-N-(3-hydroxypropyl)-amine]: the “Hoechst 33342 nuclear staining score” value is listed as 2 (score 2 relating to strong activity comprising more than 70% of the cells).

Staying with this experiment, now noted: Jurkat, conc 0.01 μm.
On to `Cc1ccc(OCn2c(-c3nonc3NCCC#N)nc3ccccc32)cc1C` [Example 10, 4-[1-(3,4-Dimethylphenoxymethyl)-1H-benzimidazol-2-yl]-furazan-3-yl-N-(2-cyanoethyl)-amine], for which the “Hoechst 33342 nuclear staining score” value amounted to 0.

For `O=C(Cn1c(-c2nonc2NCCCO)nc2ccccc21)c1ccc(Cl)cc1` [Example 11, 4-[1-(4-Chlorophenacyl)-1H-benzimidazol-2-yl]-furazan-3-yl-N-(3-hydroxypropyl)-amine], the “Hoechst 33342 nuclear staining score” value was found to be 0.

The experiment is the same for the next values; noted with them: Jurkat, conc 0.1 μm.
With `Cc1ccc(OCn2c(-c3nonc3NCCC#N)nc3ccccc32)cc1C` [Example 10, 4-[1-(3,4-Dimethylphenoxymethyl)-1H-benzimidazol-2-yl]-furazan-3-yl-N-(2-cyanoethyl)-amine], the “Hoechst 33342 nuclear staining score” value is on record as 2 (score 2 relating to strong activity comprising more than 70% of the cells).

Take `O=C(Cn1c(-c2nonc2NCCCO)nc2ccccc21)c1ccc(Cl)cc1` [Example 11, 4-[1-(4-Chlorophenacyl)-1H-benzimidazol-2-yl]-furazan-3-yl-N-(3-hydroxypropyl)-amine]: the “Hoechst 33342 nuclear staining score” value is recorded as 2 (score 2 relating to strong activity comprising more than 70% of the cells).

Staying with this experiment, now noted: Jurkat, conc 1 μm.
Regarding `Cc1ccc(OCn2c(-c3nonc3NCCC#N)nc3ccccc32)cc1C` [Example 10, 4-[1-(3,4-Dimethylphenoxymethyl)-1H-benzimidazol-2-yl]-furazan-3-yl-N-(2-cyanoethyl)-amine], the “Hoechst 33342 nuclear staining score” value is 2 (score 2 relating to strong activity comprising more than 70% of the cells).

As to `O=C(Cn1c(-c2nonc2NCCCO)nc2ccccc21)c1ccc(Cl)cc1` [Example 11, 4-[1-(4-Chlorophenacyl)-1H-benzimidazol-2-yl]-furazan-3-yl-N-(3-hydroxypropyl)-amine], the “Hoechst 33342 nuclear staining score” value is reported as 2 (score 2 relating to strong activity comprising more than 70% of the cells).

Staying with this experiment, now noted: MRC5, conc 0.01 μm.
On to `Cc1ccc(OCn2c(-c3nonc3NCCC#N)nc3ccccc32)cc1C` [Example 10, 4-[1-(3,4-Dimethylphenoxymethyl)-1H-benzimidazol-2-yl]-furazan-3-yl-N-(2-cyanoethyl)-amine], for which the “Hoechst 33342 nuclear staining score” value was determined as 0.

With `O=C(Cn1c(-c2nonc2NCCCO)nc2ccccc21)c1ccc(Cl)cc1` [Example 11, 4-[1-(4-Chlorophenacyl)-1H-benzimidazol-2-yl]-furazan-3-yl-N-(3-hydroxypropyl)-amine], the “Hoechst 33342 nuclear staining score” value is recorded as 0.

The experiment is the same for the next values; noted with them: MRC5, conc 0.1 μm.
For the compound `Cc1ccc(OCn2c(-c3nonc3NCCC#N)nc3ccccc32)cc1C` [Example 10, 4-[1-(3,4-Dimethylphenoxymethyl)-1H-benzimidazol-2-yl]-furazan-3-yl-N-(2-cyanoethyl)-amine], the “Hoechst 33342 nuclear staining score” value came out at 0.

`O=C(Cn1c(-c2nonc2NCCCO)nc2ccccc21)c1ccc(Cl)cc1` [Example 11, 4-[1-(4-Chlorophenacyl)-1H-benzimidazol-2-yl]-furazan-3-yl-N-(3-hydroxypropyl)-amine]: the “Hoechst 33342 nuclear staining score” value is reported as 1 (1 relating to weak activity comprising less than 70% of the cells).

The same experiment, now with this note: MRC5, conc 1 μm.
In the case of `Cc1ccc(OCn2c(-c3nonc3NCCC#N)nc3ccccc32)cc1C` [Example 10, 4-[1-(3,4-Dimethylphenoxymethyl)-1H-benzimidazol-2-yl]-furazan-3-yl-N-(2-cyanoethyl)-amine], the “Hoechst 33342 nuclear staining score” value is listed as 1 (1 relating to weak activity comprising less than 70% of the cells).

In the case of `O=C(Cn1c(-c2nonc2NCCCO)nc2ccccc21)c1ccc(Cl)cc1` [Example 11, 4-[1-(4-Chlorophenacyl)-1H-benzimidazol-2-yl]-furazan-3-yl-N-(3-hydroxypropyl)-amine], the “Hoechst 33342 nuclear staining score” value is given as 2 (score 2 relating to strong activity comprising more than 70% of the cells).

The experiment is the same for the next values; noted with them: PBLs, conc 0.01 μm.
Take `Cc1ccc(OCn2c(-c3nonc3NCCC#N)nc3ccccc32)cc1C` [Example 10, 4-[1-(3,4-Dimethylphenoxymethyl)-1H-benzimidazol-2-yl]-furazan-3-yl-N-(2-cyanoethyl)-amine]: the “Hoechst 33342 nuclear staining score” value was 0.

Turning to `O=C(Cn1c(-c2nonc2NCCCO)nc2ccccc21)c1ccc(Cl)cc1` [Example 11, 4-[1-(4-Chlorophenacyl)-1H-benzimidazol-2-yl]-furazan-3-yl-N-(3-hydroxypropyl)-amine], the “Hoechst 33342 nuclear staining score” value came to 0.

The same experiment, now with this note: PBLs, conc 0.1 μm.
For `Cc1ccc(OCn2c(-c3nonc3NCCC#N)nc3ccccc32)cc1C` [Example 10, 4-[1-(3,4-Dimethylphenoxymethyl)-1H-benzimidazol-2-yl]-furazan-3-yl-N-(2-cyanoethyl)-amine], the “Hoechst 33342 nuclear staining score” value was 0.

For `O=C(Cn1c(-c2nonc2NCCCO)nc2ccccc21)c1ccc(Cl)cc1` [Example 11, 4-[1-(4-Chlorophenacyl)-1H-benzimidazol-2-yl]-furazan-3-yl-N-(3-hydroxypropyl)-amine], the “Hoechst 33342 nuclear staining score” value was found to be 0.

The experiment is the same for the next values; noted with them: PBLs, conc 1 μm.
For `Cc1ccc(OCn2c(-c3nonc3NCCC#N)nc3ccccc32)cc1C` [Example 10, 4-[1-(3,4-Dimethylphenoxymethyl)-1H-benzimidazol-2-yl]-furazan-3-yl-N-(2-cyanoethyl)-amine], the “Hoechst 33342 nuclear staining score” value came to 0.

Take `O=C(Cn1c(-c2nonc2NCCCO)nc2ccccc21)c1ccc(Cl)cc1` [Example 11, 4-[1-(4-Chlorophenacyl)-1H-benzimidazol-2-yl]-furazan-3-yl-N-(3-hydroxypropyl)-amine]: the “Hoechst 33342 nuclear staining score” value came out at 0.

The subject of a further experiment is HeLa. Description: MTS proliferation assay, HeLa. The format is cell-based, human. The settings on record: Homo sapiens, 72 h incubation, read-out: MTS proliferation assay IC 50 HeLa. The method in brief: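 Seed cells (1.5*10^3-10^4/well) 24 h ahead; add compound, final 10/3/1/0.3 μM; incubate 72 h, 37 °C, 7.5% CO2; MTS 3 h; read A492.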
(Tetrazolium dyes change colour on reduction, which living cells bring about.)
Take `Cc1ccc(OCn2c(-c3nonc3NCCC#N)nc3ccccc32)cc1C` [Example 10, 4-[1-(3,4-Dimethylphenoxymethyl)-1H-benzimidazol-2-yl]-furazan-3-yl-N-(2-cyanoethyl)-amine]: the IC50 lay within 100 to 1000 nM.

On to `O=C(Cn1c(-c2nonc2NCCCO)nc2ccccc21)c1ccc(Cl)cc1` [Example 11, 4-[1-(4-Chlorophenacyl)-1H-benzimidazol-2-yl]-furazan-3-yl-N-(3-hydroxypropyl)-amine], for which the IC50 was in the range of 100 to 1000 nM.

The next experiment deals with Jily. Description: MTS proliferation assay, Jily. It counts as cell-based. The settings on record: 72 h incubation, read-out: MTS proliferation assay IC 50 Jily. The procedure: Cell lines are cultured in RPMI-1640 tissue culture medium containing either 5% or 10% fetal calf serum, 0.05 mM 2-mercaptoethanol, 2 mM glutamine and penicillin/streptomycin 50 μg/ml (complete medium) (Sigma, Buchs, Switzerland). General growth conditions are 37° C. and 7.5% CO2.
The assay is performed in 96 well tissue culture plates. The cells (range: 1.5*10^3-10^4) are seeded out in 80 μl complete medium 24 h prior to compound treatment. The test compounds are added in 20 μl complete medium containing max 5% DMSO. The final compound concentrations in the assays are 10 μM, 3 μM, 1 μM and 0.3 μM, respectively. The assay plates are incubated for 72 h at culture conditions. The MTS reagent is prepared according to the manufacturer's protocol (Promega G1111). 20 μl MTS reagent are added to each well, the assay plates are quickly spun and incubated for another 3 h at culture conditions. Subsequently, the plates are shortly shaked and absorption measured with a microplate-reader at 492 nm.
Take `Cc1ccc(OCn2c(-c3nonc3NCCC#N)nc3ccccc32)cc1C` [Example 10, 4-[1-(3,4-Dimethylphenoxymethyl)-1H-benzimidazol-2-yl]-furazan-3-yl-N-(2-cyanoethyl)-amine]: the IC50 lay within 10 to 100 nM.

With `O=C(Cn1c(-c2nonc2NCCCO)nc2ccccc21)c1ccc(Cl)cc1` [Example 11, 4-[1-(4-Chlorophenacyl)-1H-benzimidazol-2-yl]-furazan-3-yl-N-(3-hydroxypropyl)-amine], the IC50 fell in the range of 10 to 100 nM.
